In the OligoGym collection:
Oligonucleotides are given in HELM: sugar(base)linkage, 5' to 3'; d 2'-deoxyribose, r ribose, m 2'-O-methylribose, p phosphate. ss, as = sense and antisense strand
Further: test concentration or dose not given here.

These substances were tested against CDC34 (assay: reporter assay of Huesken 2005). Details: siRNA.
Work on “RNA1{r(A)p.r(A)p.r(G)p.r(A)p.r(U)p.r(G)p.r(U)p.r(G)p.r(G)p.r(C)p.r(A)p.r(C)p.r(C)p.r(C)p.r(U)p.r(A)p.r(A)p.r(C)p.r(A)p.d(T)p.d(T)}|RNA2{r(U)p.r(G)p.r(U)p.r(U)p.r(A)p.r(G)p.r(G)p.r(G)p.r(U)p.r(G)p.r(C)p.r(C)p.r(A)p.r(C)p.r(A)p.r(U)p.r(C)p.r(U)p.r(U)p.d(G)p.d(G)}$$$RNA1{StrandType:ss}|RNA2{StrandType:as}$” yielded a normalised inhibition (eCFP-eYFP dual reporter) of 36.7%.
“RNA1{r(A)p.r(C)p.r(A)p.r(G)p.r(A)p.r(C)p.r(A)p.r(U)p.r(C)p.r(A)p.r(U)p.r(C)p.r(C)p.r(G)p.r(G)p.r(A)p.r(A)p.r(G)p.r(C)p.d(T)p.d(T)}|RNA2{r(G)p.r(C)p.r(U)p.r(U)p.r(C)p.r(C)p.r(G)p.r(G)p.r(A)p.r(U)p.r(G)p.r(A)p.r(U)p.r(G)p.r(U)p.r(C)p.r(U)p.r(G)p.r(U)p.d(G)p.d(T)}$$$RNA1{StrandType:ss}|RNA2{StrandType:as}$” was tested, and the normalised inhibition (eCFP-eYFP dual reporter) was 34.9%.
“RNA1{r(A)p.r(C)p.r(C)p.r(A)p.r(U)p.r(U)p.r(C)p.r(U)p.r(C)p.r(C)p.r(U)p.r(G)p.r(A)p.r(G)p.r(U)p.r(G)p.r(U)p.r(G)p.r(A)p.d(T)p.d(T)}|RNA2{r(U)p.r(C)p.r(A)p.r(C)p.r(A)p.r(C)p.r(U)p.r(C)p.r(A)p.r(G)p.r(G)p.r(A)p.r(G)p.r(A)p.r(A)p.r(U)p.r(G)p.r(G)p.r(U)p.d(C)p.d(C)}$$$RNA1{StrandType:ss}|RNA2{StrandType:as}$” was tested, and the normalised inhibition (eCFP-eYFP dual reporter) was 81.3%.
“RNA1{r(A)p.r(C)p.r(C)p.r(C)p.r(C)p.r(A)p.r(C)p.r(G)p.r(C)p.r(A)p.r(G)p.r(A)p.r(A)p.r(C)p.r(G)p.r(U)p.r(C)p.r(A)p.r(G)p.d(T)p.d(T)}|RNA2{r(C)p.r(U)p.r(G)p.r(A)p.r(C)p.r(G)p.r(U)p.r(U)p.r(C)p.r(U)p.r(G)p.r(C)p.r(G)p.r(U)p.r(G)p.r(G)p.r(G)p.r(G)p.r(U)p.d(T)p.d(C)}$$$RNA1{StrandType:ss}|RNA2{StrandType:as}$” gave a normalised inhibition (eCFP-eYFP dual reporter) of 57.8%.
“RNA1{r(A)p.r(C)p.r(C)p.r(U)p.r(C)p.r(U)p.r(U)p.r(C)p.r(U)p.r(A)p.r(C)p.r(G)p.r(A)p.r(C)p.r(G)p.r(A)p.r(C)p.r(U)p.r(A)p.d(T)p.d(T)}|RNA2{r(U)p.r(A)p.r(G)p.r(U)p.r(C)p.r(G)p.r(U)p.r(C)p.r(G)p.r(U)p.r(A)p.r(G)p.r(A)p.r(A)p.r(G)p.r(A)p.r(G)p.r(G)p.r(U)p.d(C)p.d(T)}$$$RNA1{StrandType:ss}|RNA2{StrandType:as}$” gave a normalised inhibition (eCFP-eYFP dual reporter) of 89.3%.
“RNA1{r(A)p.r(C)p.r(G)p.r(C)p.r(U)p.r(G)p.r(G)p.r(C)p.r(C)p.r(G)p.r(A)p.r(G)p.r(U)p.r(A)p.r(C)p.r(U)p.r(G)p.r(C)p.r(G)p.d(T)p.d(T)}|RNA2{r(C)p.r(G)p.r(C)p.r(A)p.r(G)p.r(U)p.r(A)p.r(C)p.r(U)p.r(C)p.r(G)p.r(G)p.r(C)p.r(C)p.r(A)p.r(G)p.r(C)p.r(G)p.r(U)p.d(G)p.d(G)}$$$RNA1{StrandType:ss}|RNA2{StrandType:as}$” was tested, and the normalised inhibition (eCFP-eYFP dual reporter) was 52.4%.
With “RNA1{r(A)p.r(C)p.r(G)p.r(U)p.r(C)p.r(A)p.r(G)p.r(G)p.r(A)p.r(C)p.r(C)p.r(A)p.r(U)p.r(U)p.r(C)p.r(U)p.r(C)p.r(C)p.r(U)p.d(T)p.d(T)}|RNA2{r(A)p.r(G)p.r(G)p.r(A)p.r(G)p.r(A)p.r(A)p.r(U)p.r(G)p.r(G)p.r(U)p.r(C)p.r(C)p.r(U)p.r(G)p.r(A)p.r(C)p.r(G)p.r(U)p.d(T)p.d(C)}$$$RNA1{StrandType:ss}|RNA2{StrandType:as}$” the normalised inhibition (eCFP-eYFP dual reporter) was 72.2%.
For “RNA1{r(A)p.r(C)p.r(U)p.r(A)p.r(C)p.r(G)p.r(A)p.r(G)p.r(G)p.r(G)p.r(C)p.r(G)p.r(G)p.r(C)p.r(U)p.r(A)p.r(C)p.r(U)p.r(U)p.d(T)p.d(T)}|RNA2{r(A)p.r(A)p.r(G)p.r(U)p.r(A)p.r(G)p.r(C)p.r(C)p.r(G)p.r(C)p.r(C)p.r(C)p.r(U)p.r(C)p.r(G)p.r(U)p.r(A)p.r(G)p.r(U)p.d(A)p.d(G)}$$$RNA1{StrandType:ss}|RNA2{StrandType:as}$”, the normalised inhibition (eCFP-eYFP dual reporter) was 73.7%.
With “RNA1{r(A)p.r(G)p.r(C)p.r(A)p.r(A)p.r(G)p.r(G)p.r(G)p.r(G)p.r(A)p.r(A)p.r(G)p.r(G)p.r(A)p.r(U)p.r(C)p.r(G)p.r(G)p.r(G)p.d(T)p.d(T)}|RNA2{r(C)p.r(C)p.r(C)p.r(G)p.r(A)p.r(U)p.r(C)p.r(C)p.r(U)p.r(U)p.r(C)p.r(C)p.r(C)p.r(C)p.r(U)p.r(U)p.r(G)p.r(C)p.r(U)p.d(C)p.d(T)}$$$RNA1{StrandType:ss}|RNA2{StrandType:as}$” the normalised inhibition (eCFP-eYFP dual reporter) was 41.2%.
For “RNA1{r(A)p.r(G)p.r(G)p.r(A)p.r(A)p.r(G)p.r(A)p.r(G)p.r(C)p.r(C)p.r(G)p.r(G)p.r(U)p.r(C)p.r(G)p.r(A)p.r(G)p.r(G)p.r(G)p.d(T)p.d(T)}|RNA2{r(C)p.r(C)p.r(C)p.r(U)p.r(C)p.r(G)p.r(A)p.r(C)p.r(C)p.r(G)p.r(G)p.r(C)p.r(U)p.r(C)p.r(U)p.r(U)p.r(C)p.r(C)p.r(U)p.d(G)p.d(C)}$$$RNA1{StrandType:ss}|RNA2{StrandType:as}$”, the normalised inhibition (eCFP-eYFP dual reporter) was 44.3%.
For “RNA1{r(A)p.r(G)p.r(G)p.r(U)p.r(G)p.r(G)p.r(A)p.r(A)p.r(C)p.r(C)p.r(C)p.r(C)p.r(A)p.r(C)p.r(G)p.r(C)p.r(A)p.r(G)p.r(A)p.d(T)p.d(T)}|RNA2{r(U)p.r(C)p.r(U)p.r(G)p.r(C)p.r(G)p.r(U)p.r(G)p.r(G)p.r(G)p.r(G)p.r(U)p.r(U)p.r(C)p.r(C)p.r(A)p.r(C)p.r(C)p.r(U)p.d(C)p.d(T)}$$$RNA1{StrandType:ss}|RNA2{StrandType:as}$”, the normalised inhibition (eCFP-eYFP dual reporter) was 72.6%.
“RNA1{r(C)p.r(A)p.r(A)p.r(G)p.r(G)p.r(C)p.r(G)p.r(C)p.r(C)p.r(G)p.r(G)p.r(C)p.r(G)p.r(C)p.r(C)p.r(C)p.r(G)p.r(A)p.r(C)p.d(T)p.d(T)}|RNA2{r(G)p.r(U)p.r(C)p.r(G)p.r(G)p.r(G)p.r(C)p.r(G)p.r(C)p.r(C)p.r(G)p.r(G)p.r(C)p.r(G)p.r(C)p.r(C)p.r(U)p.r(U)p.r(G)p.d(G)p.d(T)}$$$RNA1{StrandType:ss}|RNA2{StrandType:as}$” was tested, and the normalised inhibition (eCFP-eYFP dual reporter) was 26.8%.
In the case of “RNA1{r(C)p.r(A)p.r(C)p.r(C)p.r(C)p.r(G)p.r(C)p.r(C)p.r(G)p.r(G)p.r(U)p.r(G)p.r(G)p.r(A)p.r(C)p.r(G)p.r(A)p.r(C)p.r(C)p.d(T)p.d(T)}|RNA2{r(G)p.r(G)p.r(U)p.r(C)p.r(G)p.r(U)p.r(C)p.r(C)p.r(A)p.r(C)p.r(C)p.r(G)p.r(G)p.r(C)p.r(G)p.r(G)p.r(G)p.r(U)p.r(G)p.d(G)p.d(A)}$$$RNA1{StrandType:ss}|RNA2{StrandType:as}$”, the normalised inhibition (eCFP-eYFP dual reporter) is reported as 25.4%.
For “RNA1{r(C)p.r(A)p.r(C)p.r(U)p.r(G)p.r(G)p.r(U)p.r(G)p.r(G)p.r(A)p.r(C)p.r(G)p.r(A)p.r(G)p.r(G)p.r(G)p.r(C)p.r(G)p.r(A)p.d(T)p.d(T)}|RNA2{r(U)p.r(C)p.r(G)p.r(C)p.r(C)p.r(C)p.r(U)p.r(C)p.r(G)p.r(U)p.r(C)p.r(C)p.r(A)p.r(C)p.r(C)p.r(A)p.r(G)p.r(U)p.r(G)p.d(T)p.d(C)}$$$RNA1{StrandType:ss}|RNA2{StrandType:as}$”, the normalised inhibition (eCFP-eYFP dual reporter) was 75.5%.
